Patent US20220090096A1 (priority 2019, published 2022)

Key:
Clostridium sporogenes = format: in vitro ADME; settings: 2 mM in TYG medium; up to 20 hours
Experimental: To analyse if C. sporogenes consumes theophylline, 12 hour cultures were diluted to a staring OD600 of 0.01. At an OD600 of ≈0.5 cultures were induced with 2 mM theophylline. 1 mL samples were taken immediately and then at 2, 4, 6, 8, 10 and 20 hours after supplementation of theophylline. Samples were centrifuged for 10 min and 10000×g. Supernatants were used to determine the concentration of theophylline using an Alliance HT 2795 HPLC (Waters corporation) coupled to a Micromass Quattro LC Mass Spectrometer (Waters Wilmslow) in positive mode from m/z 70 to 500 for all samples at a scan rate of 1 cycle/s and equipped with an electrospray source. The general parameters were as follows: capillary voltage 2000 V, sampling cone 30 V, source temperature 130° C., desolvation temperature 350° C., cone gas flow 64 L/h and desolvation gas flow 621 L/h.
Prior to ionization, chromatographic separation was achieved using a Supelco Ascentis Express HPLC column (100 mm×3 mm, 2.7 μM, Sigma Aldrich). The mobile phase consisted of (A) water with 0.1% v/v formic acid and (B) methanol with 0.1% v/v formic acid. […]
As requisite of a good inducer, it was ascertained that theophylline is not metabolized by Clostridium sporogenes. […] The concentration of theophylline was monitored by HPLC/MS (high-performance liquid chromatography-mass spectrometry) analysis of cell-free supernatant samples over time.

C. sporogenes = format: cell-based, Clostridium sporogenes; settings: theophylline 0.1-10 mM supplemented at time zero
Experimental: For growth experiments, pre-cultures grown for 12 hours were diluted to a starting OD600 of 0.01 with fresh medium containing different concentrations of the inducer theophylline (0-10 mM). Because theophylline is dissolved in DMSO, appropriate quantities of DMSO were added to all the cultures to account for any effect DMSO might have on growth.

[1] = system: catP reporter (Chloramphenicol Acetyl Transferase, CAT); format: cell-based, Clostridium sporogenes NCIMB 10696

With Cn1c(=O)c2[nH]cnc2n(C)c1=O [theophylline] the “concentration of theophylline in cell-free supernatant over time” value (Clostridium sporogenes) was “remains constant”, the “concentrations resulting in a reduction of growth” value (C. sporogenes) was “higher than 5 mM” and the “dose dependency of gene expression” value [1] was “higher levels of gene expression”.
